Data: patent publication US8415312B2, “Compound which is a nystatin derivative” (Biosergen AS, priority 2007, dated 2013)
≈ marks a conversion by molar mass, not a printed value.

Tests used:
[1] = system: mice (C57B1/6xDBA/2)F1 B6D2F1; conditions: single injection into tail vein, probit analysis
Experimental: Male mice of hybrids of first generation (C57B1/6xDBA/2)F1 B6D2F1, weight 20-22 g., received from the Central farm. “Kryukovo” of Russian Academies of Medical Science (RAMS) were used. Animals were maintained in a vivarium in plastic cages (with hardwood bedding in environmentally controlled conditions: 24±1° C., 12/12 hours light/dark cycle) on a standard diet of bricketed forages with easy access to drinking water (ad libitum). After a 2-week quarantine period, healthy animals were used in experimental work.
The solutions were prepared as follows: dry antibiotic substances (5 mg) were mixed with dry sodium deoxycholate (4.1 mg) in a sterile glass vial. 10 mL of phosphate buffer (NaH2PO4—1.59 g; Na2HPO4—0.96 g; H2O—to 100 mL) was added to the mix and the suspension was immediately subjected to vigorous shaking for 10 minutes until homogeneous suspensions were formed.
Preparations of amphotericin B and S44HP were also prepared in the same way.
The antibiotic preparations were singly injected into the mice's tail vein within 1-1.5 hours after the preparation of solutions. […] Each antibiotic was used in a range of doses resulting in 0% to 100% lethality and a minimum of 3 intermediate doses. Animals were randomized into groups, each containing 6 mice.

[2] = system: Aspergillus niger ATCC 16404; test: Antifungal susceptibility study (1), broth microdilution MIC; format: cell-based; conditions: lowest concentration preventing any visible growth, read at 48 hours, 35° C., RPMI 1640 pH 7.0
Experimental: (§1) ACROS ORGANICS, New Jersey, USA), pH 7.0, was used in study. […] Then these DMSO solutions were diluted 50-fold (first 10-fold and then 5-fold) in the test medium. […] The solutions were prepared just before using. The organisms used for susceptibility testing were: Candida albicans ATCC 14053, Cryptococcus humicolus ATCC 9949, Aspergillus niger ATCC 16404 and Fusarium oxysporum VKM F-140 (=CMI, IMI 90473). Organisms were stored on potato dextrose agar […] 50% glycerol solution at -70° C. For short-term storage, stock cultures were stored on agar […] 4° C. The cultures of yeasts were sub-cultured onto Sabouraud dextrose (SAB) agar and incubated for 24 hours at 35° C. (Candida albicans) or for 48 hours at 25° C. (Cryptococcus humicolus) to obtain a freshly grown pure culture. The cultures of moulds were sub-cultured onto potato dextrose agar and incubated for 7 days at 35° C. […] (Fusarium oxysporum) to ensure maximum sporulation. […] Finally, the suspensions were vortexed for 15 s to break up clumps of cells and then filtered through four layers of sterile gauze. The densities of conidial spore suspensions was measured at 530 nm and adjusted to 0.09-0.11 for Aspergillus niger and 0.15-0.17 for Fusarium oxysporum. These suspensions were diluted 1:50 with the standard medium. […] Inoculum quantitation was performed by plating dilution of the inoculum on Sabouraud dextrose agar to determine the viable number of CFU per milliliter. Sterile 96-well flat-bottomed microtitration plates were used for testing. 100 μl of diluted inocula were dispensed into each microdilution well containing 100 μl of the double dilutions of compounds. Drug-free and yeast/mould-free controls were included. Microdilution trays were incubated at 35° C. (Candida albicans and moulds) or 25° C. (Cryptococcus humicolus) without agitation and observed for the presence or absence of visible growth. […] Minimal inhibitory concentrations (MICs) were read at 48 hours.

[3] = system: Fusarium oxysporum VKM F-140; test: as above; format: cell-based; conditions: lowest concentration preventing any visible growth, read at 48 hours, 35° C., RPMI 1640 pH 7.0
Experimental: as §1

[4] = system: Candida albicans ATCC 14053; test: as above; format: cell-based; conditions: lowest concentration preventing any visible growth, read at 48 hours, 35° C., RPMI 1640 pH 7.0
Experimental: (§2) ACROS ORGANICS, New Jersey, USA), pH 7.0, was used in study. […] Then these DMSO solutions were diluted 50-fold (first 10-fold and then 5-fold) in the test medium. […] The solutions were prepared just before using. The organisms used for susceptibility testing were: Candida albicans ATCC 14053, Cryptococcus humicolus ATCC 9949, Aspergillus niger ATCC 16404 and Fusarium oxysporum VKM F-140 (=CMI, IMI 90473). Organisms were stored on potato dextrose agar […] 50% glycerol solution at -70° C. For short-term storage, stock cultures were stored on agar […] 4° C. The cultures of yeasts were sub-cultured onto Sabouraud dextrose (SAB) agar and incubated for 24 hours at 35° C. (Candida albicans) or for 48 hours at 25° C. (Cryptococcus humicolus) to obtain a freshly grown pure culture. The cultures of moulds were sub-cultured onto potato dextrose agar and incubated for 7 days at 35° C. […] (Fusarium oxysporum) to ensure maximum sporulation. […] Inoculum quantitation was performed by plating dilution of the inoculum on Sabouraud dextrose agar to determine the viable number of CFU per milliliter. Sterile 96-well flat-bottomed microtitration plates were used for testing. 100 μl of diluted inocula were dispensed into each microdilution well containing 100 μl of the double dilutions of compounds. Drug-free and yeast/mould-free controls were included. Microdilution trays were incubated at 35° C. (Candida albicans and moulds) or 25° C. (Cryptococcus humicolus) without agitation and observed for the presence or absence of visible growth. […] Minimal inhibitory concentrations (MICs) were read at 48 hours.

[5] = system: Cryptococcus humicolus ATCC 9949; test: as above; format: cell-based; conditions: lowest concentration preventing any visible growth, read at 48 hours, 25° C., RPMI 1640 pH 7.0
Experimental: as §2

| Structure (SMILES) | LD50 [1] [mg/kg] | MTD [1] [mg/kg] | MIC Aspergillus niger ATCC 16404 [2] [µg/mL] | MIC Fusarium oxysporum VKM F-140 [3] [µg/mL] | MIC Candida albicans ATCC 14053 [4] [µg/mL] | MIC Cryptococcus humicolus ATCC 9949 [5] [µg/mL] |
| --- | --- | --- | --- | --- | --- | --- |
| CC1C=CC=CC=CC=CC=CC=CC=CC(OC2OC(C)C(O)C(N)C2O)CC2OC(O)(CC(O)CCCC(O)CC(O)CC(O)CC(=O)OC(C)C(C)C1O)CC(O)C2C(=O)NCCN(C)C.NC(CCC(=O)O)C(=O)O (stereo not drawn) [Compound 27] | 20.6 | 10.8 |  |  |  |  |
| CC1C=CC=CC=CC=CC=CC=CC=CC(OC2OC(C)C(O)C(N)C2O)CC2OC(O)(CC(O)C(O)CCC(O)CC(O)CC(O)CC(=O)OC(C)C(C)C1O)CC(O)C2C(=O)NCCN(C)C.NC(CCC(=O)O)C(=O)O (stereo not drawn) [Compound 28] | 22.1 | 14.7 |  |  |  |  |
| CC1C=CC=CC=CC=CC=CC=CC=CC(OC2OC(C)C(O)C(NCC3(O)OCC(O)C(OC4OC(CO)C(O)C(O)C4O)C3O)C2O)CC2OC(O)(CC(O)C(O)CCC(O)CC(O)CC(O)CC(=O)OC(C)C(C)C1O)CC(O)C2C(=O)O (stereo not drawn) [Compound 19] |  |  | 2 (≈ 1.6 µM) | 8 (≈ 6.41 µM) | 2 (≈ 1.6 µM) | 2 (≈ 1.6 µM) |
| CC1O[C@@H](O[C@H]2/C=C/C=C/C=C/C=C/C=C/C=C/C=C/[C@H](C)[C@@H](O)[C@@H](C)[C@H](C)OC(=O)C[C@H](O)C[C@H](O)C[C@H](O)CC[C@@H](O)[C@H](O)C[C@]3(O)C[C@H](O)[C@@H](C(=O)NCCN(C)C)[C@H](C2)O3)[C@H](O)C(NCc2ccc(N(C)C)cc2)[C@@H]1O (stereo partly drawn) [Compound 43] |  |  | 1 (≈ 0.887 µM) | 4 (≈ 3.55 µM) | 1 (≈ 0.887 µM) | 1 (≈ 0.887 µM) |
| CC1O[C@@H](O[C@H]2/C=C/C=C/C=C/C=C/C=C/C=C/C=C/[C@H](C)[C@@H](O)[C@@H](C)[C@H](C)OC(=O)C[C@H](O)C[C@H](O)C[C@H](O)CC[C@@H](O)[C@H](O)C[C@]3(O)C[C@H](O)[C@@H](C(=O)NCCN(C)C)[C@H](C2)O3)[C@H](O)C(NC(=O)CN(C)C)[C@@H]1O (stereo partly drawn) [Compound 45] |  |  | 1 (≈ 0.926 µM) | 4 (≈ 3.71 µM) | 1 (≈ 0.926 µM) | 2 (≈ 1.85 µM) |
| CC1C=CC=CC=CC=CC=CC=CC=CC(OC2OC(C)C(O)C(NC(=O)c3ccc(CN)cc3)C2O)CC2OC(O)(CC(O)C(O)CCC(O)CC(O)CC(O)CC(=O)OC(C)C(C)C1O)CC(O)C2C(=O)NCCCN(C)C (stereo not drawn) [Compound 35] |  |  | 4 (≈ 3.5 µM) | 4 (≈ 3.5 µM) | 2 (≈ 1.75 µM) | 2 (≈ 1.75 µM) |
| CC1O[C@@H](O[C@H]2/C=C/C=C/C=C/C=C/C=C/C=C/C=C/[C@H](C)[C@@H](O)[C@@H](C)[C@H](C)OC(=O)C[C@H](O)C[C@H](O)C[C@H](O)CC[C@@H](O)[C@H](O)C[C@]3(O)C[C@H](O)[C@@H](C(=O)NCCN(C)C)[C@H](C2)O3)[C@H](O)C(NC(=O)c2ccc(CN)cc2)[C@@H]1O (stereo partly drawn) [Compound 46] |  |  | 2 (≈ 1.77 µM) | 4 (≈ 3.55 µM) | 2 (≈ 1.77 µM) | 2 (≈ 1.77 µM) |
